The values that follow come from patent US7732603B2, “Organic compounds as agents for the treatment of aldosterone mediated conditions” (Novartis AG, priority 2002, dated 2010).

Where a name gives a salt, the structure may show the parent alone.

The melting point is the temperature, or range, at which the solid turns liquid. Regarding `Cl.O=C1C(c2cccc(Br)c2)n2cncc2CN1CCc1cccc(Cl)c1` (stereo not shown), the melting point lay within 184 to 186 °C.

With `Cl.O=C1C(c2cccc(Br)c2)n2cncc2CN1Cc1ccc(F)cc1` (stereo not shown), the melting point is 246 to 248 °C.

Regarding `C=CCN1Cc2cncn2C(c2ccc(C#N)cc2)C1=O` (stereo not shown) [Example 4, 4-(7-Allyl-6-oxo-5,6,7,8-tetrahydro-imidazo[1,5-a]pyrazin-5-yl)-benzonitrile], the melting point was 107 to 109 °C.

`COc1ccc(CN2Cc3cncn3C(c3ccc(C#N)cc3)C2=O)cc1` (stereo not shown) [Example 9, 4-[7-(4-Methoxy-benzyl)-6-oxo-5,6,7,8-tetrahydro-imidazo[1,5-a]pyrazin-5-yl)-benzonitrile]: the melting point lay within 155 to 157 °C.

Turning to `Cc1cccc(CN2Cc3cncn3C(c3cccc(Br)c3)C2=O)c1.Cl` (stereo not shown), the melting point is 248 to 249 °C.

As to `CCCN1Cc2cncn2C(c2ccc(C#N)cc2)C1=O` (stereo not shown) [Example 5, 4-(6-Oxo-7-propyl-5,6,7,8-tetrahydro-imidazo[1,5-a]pyrazin-5-yl)-benzonitrile], the melting point fell in the range of 97 to 98 °C.

`COc1ccc(N2Cc3cncn3C(c3ccc(Br)cc3)C2=O)cc1.Cl` (stereo not shown) yielded a melting point of 149 to 150 °C.

With `CC1(c2ccc(Br)cc2)C(=O)N(Cc2ccc(F)cc2)Cc2cncn21.Cl` (stereo not shown), the melting point was in the range of 235 to 237 °C.

As for `Cl.O=C1C(c2cccc(Br)c2)n2cncc2CN1Cc1ccccc1` (stereo not shown), the melting point was 249 to 251 °C.

`Cl.O=C1C(c2cccc(Br)c2)n2cncc2CN1Cc1ccc(C(F)(F)F)cc1` (stereo not shown) gave a melting point of 269 to 271 °C.

The molecule `Cl.O=C1C(c2cccc(Br)c2)n2cncc2CN1CCc1ccc(F)cc1` (stereo not shown) gave a melting point of 179 to 180 °C.

`CC1(c2ccc(C#N)cc2)C(=O)N(Cc2ccc(F)cc2)Cc2cncn21` (stereo not shown) [Example 85, 4-[7-(4-Fluoro-benzyl)-5-methyl-6-oxo-5,6,7,8-tetrahydro-imidazo[1,5-a]pyrazin-5-yl]-benzonitrile] registered a melting point of 66 to 70 °C.

Regarding `Cl.N#Cc1cccc(C2C(=O)N(CC3CC3)Cc3cncn32)c1` (stereo not shown), the melting point fell in the range of 225 to 227 °C.

Molecule `Cl.O=C1C(c2cccc(Br)c2)n2cncc2CN1CCc1ccc(Cl)cc1` (stereo not shown) registered a melting point of 225 to 226 °C.

Regarding `Cc1ccc(CN2Cc3cncn3C(c3cccc(C#N)c3)C2=O)cc1.Cl` (stereo not shown), the melting point was in the range of 260 to 263 °C.

As for `C[C@@H](c1ccccc1)N1Cc2cncn2C(c2cccc(Br)c2)C1=O` (single isomer, unassigned; (-)) [Example 59], the melting point was 55 to 70 °C.

Molecule `O=C1C(c2ccc(-c3ccccc3)cc2)n2cncc2CN1Cc1ccc(F)cc1` (stereo not shown) [Example 78, 5-Biphenyl-4-yl-7-(4-fluoro-benzyl)-7,8-dihydro-imidazo[1,5-a]pyrazin-6-one] showed a melting point of 189 to 190 °C.

With `CN1Cc2cncn2C(c2ccccc2)C1=O.Cl` (stereo not shown), the melting point is 252 to 254 °C.

For the molecule `O=C1Cn2cncc2CN1Cc1ccc(F)cc1` [Example 65, 7-(4-Fluoro-benzyl)-7,8-dihydro-imidazo[1,5-a]pyrazin-6-one], the melting point is 112 to 114 °C.

In the case of `Cl.N#Cc1ccc(C2C(=O)N(CCc3ccc(F)cc3)Cc3cncn32)cc1` (stereo not shown), the melting point lay in the range of 160 to 162 °C.

For the molecule `O=C(O)C(=O)O.O=C1C(c2cccc(Br)c2)n2cncc2CN1C1CCCCC1` (stereo not shown), the melting point lay in the range of 129 to 131 °C.

`Cl.O=C1C(c2ccc(Br)cc2)n2cncc2CN1Cc1ccc(C(F)(F)F)cc1` (stereo not shown) showed a melting point of 113 to 114 °C.

Regarding `N#Cc1ccc(C2(Cc3ccccc3)C(=O)N(Cc3ccccc3)Cc3cncn32)cc1` (stereo not shown) [Example 88, 4-(5,7-Dibenzyl-6-oxo-5,6,7,8-tetrahydro-imidazol[1,5-a]pyrazin-5-yl)-benzonitrile], the melting point was in the range of 246 to 248 °C.

As to `Cl.O=C1C(c2ccc(Br)cc2)n2cncc2CN1Cc1ccccc1` (stereo not shown), the melting point was 250 °C (dec.).

As to `Cl.N#Cc1cccc(C2C(=O)N(CCc3ccccc3)Cc3cncn32)c1` (stereo not shown), the melting point was 203 to 205 °C.

For the molecule `O=C1N(Cc2ccc(F)cc2)Cc2cncn2C1(Cc1ccccc1)c1ccc(Br)cc1` (stereo not shown) [Example 87, 5-Benzyl-5-(4-bromo-phenyl)-7-(4-fluoro-benzyl)-7,8-dihydro-imidazo[1,5-a]pyrazin-6-one], the melting point was 166 to 168 °C.

`N#Cc1ccc(C2CC(=O)N(Cc3ccccc3)Cc3cncn32)cc1` (stereo not shown) [Example 92, 4-(8-Benzyl-7-oxo-6,7,8,9-tetrahydro-5H-imidazo[1,5-a][1,4]diazepin-5-yl)-benzonitrile] yielded a melting point of 65 °C.

As for `COc1ccc(CN2Cc3cncn3C(c3cccc(Br)c3)C2=O)cc1.Cl` (stereo not shown), the melting point lay within 246 to 248 °C.

The molecule `CC1(c2cccc(Br)c2)C(=O)N(CC2CC2)Cc2cncn21.Cl` (stereo not shown) showed a melting point of 234 to 236 °C.

Molecule `CC1(c2ccc(C#N)cc2)C(=O)N(Cc2ccccc2)Cc2cncn21.Cl` (stereo not shown) had a melting point of 230 to 232 °C.

`Cl.N#Cc1cccc(C2C(=O)N(Cc3ccc(Cl)cc3)Cc3cncn32)c1` (stereo not shown): the melting point fell in the range of 236 to 238 °C.

For `Cc1ccc(CCN2Cc3cncn3C(c3cccc(Br)c3)C2=O)cc1.Cl` (stereo not shown), the melting point lay within 197 to 199 °C.

`COc1ccc(CCN2Cc3cncn3C(c3cccc(Br)c3)C2=O)cc1.Cl` (stereo not shown) came in with a melting point of 202 to 204 °C.

In turn, `Cl.O=C1C(c2ccc(Br)cc2)n2cncc2CN1CC1CC1` (stereo not shown) came in with a melting point of 223 to 225 °C.

The molecule `Cl.N#Cc1cccc(C2C(=O)N(Cc3ccc(F)cc3)Cc3cncn32)c1` (stereo not shown) showed a melting point of 260 to 263 °C.

In turn, `Brc1ccc(C2CN(Cc3ccccc3)Cc3cncn32)cc1` (stereo not shown) (as salt: toluene sulfonate) [Example 91, 5-(4-Bromophenyl)-7-benzyl-5,6,7,8-tetrahydro-imidazo[1,5-a]pyrazine p-toluene sulfonate] showed a melting point of 223 to 225 °C.

`CN1Cc2cncn2C(c2ccc(C#N)cc2)C1=O.Cl` (stereo not shown) displayed a melting point of 222 to 224 °C.

In turn, `Cl.O=C1C(c2cccc(Br)c2)n2cncc2CN1Cc1ccc(Cl)cc1` (stereo not shown) showed a melting point of 268 to 270 °C.

Take `CN1Cc2cncn2C(c2ccc(Br)cc2)C1=O` (stereo not shown) [Example 20, 5-(4-Bromo-phenyl)-7-methyl-7,8-dihydro-imidazo[1,5-a]pyrazin-6-one]: the melting point was in the range of 143 to 144 °C.

In turn, `Cl.O=C1C(c2cccc(Br)c2)n2cncc2CN1CCc1ccccc1` (stereo not shown) came in with a melting point of 205 to 207 °C.

Molecule `O=C1C(c2cccc(Br)c2)n2cncc2CN1Cc1ccccn1` (stereo not shown) [Example 53, 5-(3-Bromo-phenyl)-7-pyridin-2-ylmethyl-7,8-dihydro-imidazo[1,5-a]pyrazin-6-one] came in with a melting point of 52 to 56 °C.

Regarding `C[C@H](c1ccccc1)N1Cc2cncn2C(c2cccc(Br)c2)C1=O` (single isomer, unassigned; (+)) [Example 58], the melting point fell in the range of 45 to 50 °C.

`Cl.N#Cc1ccc(C2C(=O)N(Cc3cccc(C(F)(F)F)c3)Cc3cncn32)cc1` (stereo not shown) came in with a melting point of 250 to 252 °C.

Regarding `Cl.N#Cc1ccc(C2C(=O)N(Cc3ccc(Cl)cc3)Cc3cncn32)cc1` (stereo not shown), the melting point is 245 to 246 °C.

`Cl.O=C1C(c2cccc(Br)c2)n2cncc2CN1Cc1ccco1` (stereo not shown) registered a melting point of 215 to 218 °C.

`Cc1ccc(CN2Cc3cncn3CC2=O)cc1` [Example 64, 7-(4-Methyl-benzyl)-7,8-dihydro-imidazo[1,5-a]pyrazin-6-one] had a melting point of 105 to 108 °C.
